The compounds below were run on P. aeruginosa strain PAO1 (assay: Biofilm prevention screen (96-well microplate, crystal violet)). Settings: Pseudomonas aeruginosa, 32 μM, positive = prevention, negative = enhancement of biofilm formation, quadruplicate, read-out: average percentage reduction of biofilm formed relative to DMSO controls.
Assay type: cell-based
Outline: (§1)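 Read-out is the mean % change in crystal-violet-stained biofilm (A586) against DMSO wells, quadruplicates, with positive values meaning prevention. Final compound levels were 250–500 μM plus dilutions such as 160 and 32 μM. Incubation ran 16–26 h with shaking, 30° C. for P. aeruginosa PAO1 and P. fluorescens, 37° C. for S. epidermidis, each in a strain-specific modified medium.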
`CCCCCCCCNC(=O)[C@@H]1CCCCN1` [Compound 20] showed an inhibition at 32 µM of -16%.
With `CCCCCCCCNC(=O)[C@H]1CCCCN1` [Compound 23, (R)-(+)-2-piperidinecarboxylic acid n-octyl amide] the inhibition at 32 µM was -5%.
In the case of `CCCCCCNC(=O)C1CCCN1C(C)=O` (racemic) [Compound 7], the inhibition at 32 µM is reported as -13%.
`CCCCCCCCNC(=O)[C@@H]1CCN1C(=O)OC(C)(C)C` [Compound 284] gave an inhibition at 32 µM of 2%.
Work on `CCCCCCNC(=O)[C@H]1CCCN1` [Compound 163] yielded an inhibition at 32 µM of 1%.

Same assay, conditions: Pseudomonas aeruginosa, 160 μM, positive = prevention, negative = enhancement of biofilm formation, quadruplicate, read-out: average percentage reduction of biofilm formed relative to DMSO controls
For `CCCCCCCCNC(=O)[C@@H]1CCCCN1` [Compound 20], the inhibition at 160 µM was -22%.
`CCCCCCCCNC(=O)[C@H]1CCCCN1` [Compound 23, (R)-(+)-2-piperidinecarboxylic acid n-octyl amide] showed an inhibition at 160 µM of -31%.
`CCCCCCNC(=O)C1CCCN1C(C)=O` (racemic) [Compound 7] showed an inhibition at 160 µM of -20%.
`CCCCCCCCNC(=O)[C@@H]1CCN1C(=O)OC(C)(C)C` [Compound 284] showed an inhibition at 160 µM of -10%.
In the case of `CCCCCCNC(=O)[C@H]1CCCN1` [Compound 163], the inhibition at 160 µM is reported as 22%.

Same assay, conditions: Pseudomonas aeruginosa, 390 μM, positive = prevention, negative = enhancement of biofilm formation, quadruplicate, read-out: average percentage reduction of biofilm formed relative to DMSO controls
With `CCCCCCCCNC(=O)[C@@H]1CCCCN1` [Compound 20] the inhibition at 390 µM was 15%.
Compound `CCCCCCCCNC(=O)[C@H]1CCCCN1` [Compound 23, (R)-(+)-2-piperidinecarboxylic acid n-octyl amide] has an inhibition at 390 µM of -3%.
`CCCCCCNC(=O)C1CCCN1C(C)=O` (racemic) [Compound 7] was tested, and the inhibition at 390 µM was -13%.
Compound `CCCCCCCCNC(=O)[C@@H]1CCN1C(=O)OC(C)(C)C` [Compound 284] has an inhibition at 390 µM of -12%.
Compound `CCCCCCNC(=O)[C@H]1CCCN1` [Compound 163] has an inhibition at 390 µM of 46%.

These compounds were tested on P. fluorescens strain ATCC 13525 in the same assay as above. Settings: Pseudomonas fluorescens, ATCC13525, 32 μM, positive = prevention, negative = enhancement of biofilm formation, quadruplicate, read-out: average percentage reduction of biofilm formed relative to DMSO controls.
Assay type: cell-based
Outline: as §1
`CCCCCCCCNC(=O)[C@@H]1CCCCN1` [Compound 20] was tested, and the inhibition at 32 µM was -16%.
Compound `CCCCCCCCNC(=O)[C@H]1CCCCN1` [Compound 23, (R)-(+)-2-piperidinecarboxylic acid n-octyl amide] has an inhibition at 32 µM of -23%.
`CCCCCCNC(=O)C1CCCN1C(C)=O` (racemic) [Compound 7] showed an inhibition at 32 µM of -11%.
`CCCCCCCCNC(=O)[C@@H]1CCN1C(=O)OC(C)(C)C` [Compound 284] was tested, and the inhibition at 32 µM was 4%.
Compound `CCCCCCNC(=O)[C@H]1CCCN1` [Compound 163] has an inhibition at 32 µM of 5%.

Same assay, conditions: Pseudomonas fluorescens, ATCC13525, 160 μM, positive = prevention, negative = enhancement of biofilm formation, quadruplicate, read-out: average percentage reduction of biofilm formed relative to DMSO controls
With `CCCCCCCCNC(=O)[C@@H]1CCCCN1` [Compound 20] the inhibition at 160 µM was -14%.
In the case of `CCCCCCCCNC(=O)[C@H]1CCCCN1` [Compound 23, (R)-(+)-2-piperidinecarboxylic acid n-octyl amide], the inhibition at 160 µM is reported as -13%.
`CCCCCCNC(=O)C1CCCN1C(C)=O` (racemic) [Compound 7] was tested, and the inhibition at 160 µM was -30%.
Compound `CCCCCCCCNC(=O)[C@@H]1CCN1C(=O)OC(C)(C)C` [Compound 284] has an inhibition at 160 µM of 21%.
In the case of `CCCCCCNC(=O)[C@H]1CCCN1` [Compound 163], the inhibition at 160 µM is reported as 6%.

Same assay, conditions: Pseudomonas fluorescens, ATCC13525, 390 μM, positive = prevention, negative = enhancement of biofilm formation, quadruplicate, read-out: average percentage reduction of biofilm formed relative to DMSO controls
With `CCCCCCCCNC(=O)[C@@H]1CCCCN1` [Compound 20] the inhibition at 390 µM was 40%.
`CCCCCCCCNC(=O)[C@H]1CCCCN1` [Compound 23, (R)-(+)-2-piperidinecarboxylic acid n-octyl amide] was tested, and the inhibition at 390 µM was 21%.
With `CCCCCCNC(=O)C1CCCN1C(C)=O` (racemic) [Compound 7] the inhibition at 390 µM was -32%.
`CCCCCCCCNC(=O)[C@@H]1CCN1C(=O)OC(C)(C)C` [Compound 284] gave an inhibition at 390 µM of -2%.
Compound `CCCCCCNC(=O)[C@H]1CCCN1` [Compound 163] has an inhibition at 390 µM of 22%.

What follows are compounds tested on S. epidermidis strain ATCC 35984 in the same assay as above. Settings: Staphylococcus epidermidis, ATCC35984, 32 μM, positive = prevention, negative = enhancement of biofilm formation, quadruplicate, read-out: average percentage reduction of biofilm formed relative to DMSO controls.
Assay type: cell-based
Outline: as §1
Work on `CCCCCCCCNC(=O)[C@@H]1CCCCN1` [Compound 20] yielded an inhibition at 32 µM of 1%.
For `CCCCCCCCNC(=O)[C@H]1CCCCN1` [Compound 23, (R)-(+)-2-piperidinecarboxylic acid n-octyl amide], the inhibition at 32 µM was -1%.
With `CCCCCCNC(=O)C1CCCN1C(C)=O` (racemic) [Compound 7] the inhibition at 32 µM was -10%.
Compound `CCCCCCCCNC(=O)[C@@H]1CCN1C(=O)OC(C)(C)C` [Compound 284] has an inhibition at 32 µM of -4%.
In the case of `CCCCCCNC(=O)[C@H]1CCCN1` [Compound 163], the inhibition at 32 µM is reported as -3%.

Same assay, conditions: Staphylococcus epidermidis, ATCC35984, 160 μM, positive = prevention, negative = enhancement of biofilm formation, quadruplicate, read-out: average percentage reduction of biofilm formed relative to DMSO controls
`CCCCCCCCNC(=O)[C@@H]1CCCCN1` [Compound 20] was tested, and the inhibition at 160 µM was 1%.
Compound `CCCCCCCCNC(=O)[C@H]1CCCCN1` [Compound 23, (R)-(+)-2-piperidinecarboxylic acid n-octyl amide] has an inhibition at 160 µM of 15%.
For `CCCCCCNC(=O)C1CCCN1C(C)=O` (racemic) [Compound 7], the inhibition at 160 µM was 6%.
Compound `CCCCCCCCNC(=O)[C@@H]1CCN1C(=O)OC(C)(C)C` [Compound 284] has an inhibition at 160 µM of -33%.
`CCCCCCNC(=O)[C@H]1CCCN1` [Compound 163] showed an inhibition at 160 µM of -5%.

Same assay, conditions: Staphylococcus epidermidis, ATCC35984, 390 μM, positive = prevention, negative = enhancement of biofilm formation, quadruplicate, read-out: average percentage reduction of biofilm formed relative to DMSO controls
Work on `CCCCCCCCNC(=O)[C@@H]1CCCCN1` [Compound 20] yielded an inhibition at 390 µM of -59%.
`CCCCCCCCNC(=O)[C@H]1CCCCN1` [Compound 23, (R)-(+)-2-piperidinecarboxylic acid n-octyl amide] was tested, and the inhibition at 390 µM was -36%.
Work on `CCCCCCNC(=O)C1CCCN1C(C)=O` (racemic) [Compound 7] yielded an inhibition at 390 µM of -11%.
`CCCCCCCCNC(=O)[C@@H]1CCN1C(=O)OC(C)(C)C` [Compound 284] showed an inhibition at 390 µM of 56%.
Compound `CCCCCCNC(=O)[C@H]1CCCN1` [Compound 163] has an inhibition at 390 µM of -10%.

The compounds below were run on P. aeruginosa strain PAO1 (assay: Improved biofilm dispersion screen (already-formed biofilms, crystal violet)). Settings: Pseudomonas aeruginosa, 30 mM NaOH step, positive = dispersion, negative = enhancement of pre-existing biofilm, quadruplicate, read-out: average percentage reduction of biofilm relative to the two control values (dispersion).
Assay type: cell-based
Outline: (§2)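 Biofilms were grown 24 h in duplicate plates without compound; one plate was crystal violet-stained for t0. On the other, fresh medium plus compound at 390 μM final was added for 22–26 h more, with DMSO controls giving t24. Value: average % biofilm reduction versus t0 and t24, quadruplicates.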
`CCCCCCCCNC(=O)[C@@H]1CCCCN1` [Compound 20] gave an inhibition at 390 µM of 46%.
For `CCCCCCCCNC(=O)[C@H]1CCCCN1` [Compound 23, (R)-(+)-2-piperidinecarboxylic acid n-octyl amide], the inhibition at 390 µM was 0%.
`CCCCCCNC(=O)C1CCCN1C(C)=O` (racemic) [Compound 7] showed an inhibition at 390 µM of -6%.
`CCCCCCCCNC(=O)[C@@H]1CCN1C(=O)OC(C)(C)C` [Compound 284] gave an inhibition at 390 µM of -79%.
`CCCCCCNC(=O)[C@H]1CCCN1` [Compound 163] gave an inhibition at 390 µM of 4%.

The compounds below were run on P. fluorescens strain ATCC 13525 in the same assay as above. Settings: Pseudomonas fluorescens, ATCC13525, 20 mM NaOH step, positive = dispersion, negative = enhancement of pre-existing biofilm, quadruplicate, read-out: average percentage reduction of biofilm relative to the two control values (dispersion).
Assay type: cell-based
Outline: as §2
In the case of `CCCCCCCCNC(=O)[C@@H]1CCCCN1` [Compound 20], the inhibition at 390 µM is reported as 25%.
For `CCCCCCCCNC(=O)[C@H]1CCCCN1` [Compound 23, (R)-(+)-2-piperidinecarboxylic acid n-octyl amide], the inhibition at 390 µM was 26%.
Compound `CCCCCCNC(=O)C1CCCN1C(C)=O` (racemic) [Compound 7] has an inhibition at 390 µM of -4%.
In the case of `CCCCCCCCNC(=O)[C@@H]1CCN1C(=O)OC(C)(C)C` [Compound 284], the inhibition at 390 µM is reported as -15%.
`CCCCCCNC(=O)[C@H]1CCCN1` [Compound 163] showed an inhibition at 390 µM of 12%.

What follows are compounds tested on S. epidermidis strain ATCC 35984 in the same assay as above. Settings: Staphylococcus epidermidis, ATCC35984, no NaOH, positive = dispersion, negative = enhancement of pre-existing biofilm, quadruplicate, read-out: average percentage reduction of biofilm relative to the two control values (dispersion).
Assay type: cell-based
Outline: as §2
Work on `CCCCCCCCNC(=O)[C@@H]1CCCCN1` [Compound 20] yielded an inhibition at 390 µM of 0%.
`CCCCCCCCNC(=O)[C@H]1CCCCN1` [Compound 23, (R)-(+)-2-piperidinecarboxylic acid n-octyl amide] was tested, and the inhibition at 390 µM was 0%.
Work on `CCCCCCNC(=O)C1CCCN1C(C)=O` (racemic) [Compound 7] yielded an inhibition at 390 µM of 0%.
`CCCCCCCCNC(=O)[C@@H]1CCN1C(=O)OC(C)(C)C` [Compound 284] was tested, and the inhibition at 390 µM was 0%.
Work on `CCCCCCNC(=O)[C@H]1CCCN1` [Compound 163] yielded an inhibition at 390 µM of -5%.

Source: US7018642B2 (The Procter & Gamble Company, priority 2001, dated 2006)
